{"source": "the supplement of paper PMC10733146", "test_in_all_cases": "viability relative to DMSO control (fraction); higher = less drug effect (more viable cells)", "details_in_all_cases": "48 h", "key": {"[1]": {"tested_on": "primary AML patient cells (S012)", "in_short": "(§1)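 The cells were primary mononuclear tumour cells, either fresh or cryopreserved, isolated by Ficoll from blood or bone marrow or derived from processed lymph node. Each well of a 384-well plate received 4 × 10^4 cells onto compounds pre-plated at five concentrations, with one well per concentration. The medium was RPMI-1640 with penicillin/streptomycin, L-glutamine and human serum, and plates stood at 37 °C and 5% CO2 for 48 h. Viability is reported as CellTiter-Glo luminescence relative to the median of 16 inner DMSO wells.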"}, "[2]": {"tested_on": "primary AML patient cells (S056)", "in_short": "as §1"}, "[3]": {"tested_on": "primary AML patient cells (S072)", "in_short": "as §1"}, "[4]": {"tested_on": "primary AML patient cells (S025)", "in_short": "as §1"}, "[5]": {"tested_on": "primary AML patient cells (S009)", "in_short": "as §1"}, "[6]": {"tested_on": "primary MCL patient cells (S063)", "in_short": "as §1"}, "[7]": {"tested_on": "primary AML patient cells (S079)", "in_short": "as §1"}, "[8]": {"tested_on": "primary T-PLL patient cells (S008)", "in_short": "as §1"}, "[9]": {"tested_on": "primary MCL patient cells (S053)", "in_short": "as §1"}, "[10]": {"tested_on": "primary FL patient cells (S022)", "in_short": "as §1"}, "[11]": {"tested_on": "primary CLL patient cells (S043)", "in_short": "as §1"}, "[12]": {"tested_on": "primary ALL patient cells (S048)", "in_short": "as §1"}, "[13]": {"tested_on": "primary AML patient cells (S081)", "in_short": "as §1"}, "[14]": {"tested_on": "primary AML patient cells (S021)", "in_short": "as §1"}, "[15]": {"tested_on": "primary AML patient cells (S017)", "in_short": "as §1"}, "[16]": {"tested_on": "primary AML patient cells (S002)", "in_short": "as §1"}, "[17]": {"tested_on": "primary BL patient cells (S005)", "in_short": "as §1"}, "[18]": {"tested_on": "primary MCL patient cells (S068)", "in_short": "as §1"}}, "data": [{"smiles": "Cc1sc2c(c1C)C(c1ccc(Cl)cc1)=N[C@@H](CC(=O)Nc1ccc(O)cc1)c1nnc(C)n1-2", "note": "[OTX015]", "values": [{"measurement": "viability", "setting": "[1]; 0.016 µM", "value": 0.989}, {"measurement": "viability", "setting": "[1]; 0.08 µM", "value": 0.84}, {"measurement": "viability", "setting": "[1]; 0.4 µM", "value": 0.565}, {"measurement": "viability", "setting": "[1]; 2 µM", "value": 0.379}, {"measurement": "viability", "setting": "[1]; 10 µM", "value": 0.267}, {"measurement": "viability", "setting": "[2]; 0.016 µM", "value": 0.932}, {"measurement": "viability", "setting": "[2]; 0.08 µM", "value": 0.885}, {"measurement": "viability", "setting": "[2]; 0.4 µM", "value": 0.631}, {"measurement": "viability", "setting": "[2]; 2 µM", "value": 0.255}, {"measurement": "viability", "setting": "[2]; 10 µM", "value": 0.235}, {"measurement": "viability", "setting": "[3]; 0.016 µM", "value": 0.806}, {"measurement": "viability", "setting": "[3]; 0.08 µM", "value": 0.826}, {"measurement": "viability", "setting": "[3]; 0.4 µM", "value": 0.604}, {"measurement": "viability", "setting": "[3]; 2 µM", "value": 0.375}, {"measurement": "viability", "setting": "[3]; 10 µM", "value": 0.364}, {"measurement": "viability", "setting": "[4]; 0.016 µM", "value": 0.87}, {"measurement": "viability", "setting": "[4]; 0.08 µM", "value": 0.971}, {"measurement": "viability", "setting": "[4]; 0.4 µM", "value": 0.767}, {"measurement": "viability", "setting": "[4]; 2 µM", "value": 0.629}, {"measurement": "viability", "setting": "[4]; 10 µM", "value": 0.549}, {"measurement": "viability", "setting": "[5]; 0.016 µM", "value": 0.859}, {"measurement": "viability", "setting": "[5]; 0.08 µM", "value": 0.752}, {"measurement": "viability", "setting": "[5]; 0.4 µM", "value": 0.6}, {"measurement": "viability", "setting": "[5]; 2 µM", "value": 0.489}, {"measurement": "viability", "setting": "[5]; 10 µM", "value": 0.457}, {"measurement": "viability", "setting": "[6]; 0.016 µM", "value": 1.14}, {"measurement": "viability", "setting": "[6]; 0.08 µM", "value": 1.14}, {"measurement": "viability", "setting": "[6]; 0.4 µM", "value": 0.91}, {"measurement": "viability", "setting": "[6]; 2 µM", "value": 0.654}, {"measurement": "viability", "setting": "[6]; 10 µM", "value": 0.566}, {"measurement": "viability", "setting": "[7]; 0.016 µM", "value": 0.812}, {"measurement": "viability", "setting": "[7]; 0.08 µM", "value": 0.757}, {"measurement": "viability", "setting": "[7]; 0.4 µM", "value": 0.568}, {"measurement": "viability", "setting": "[7]; 2 µM", "value": 0.44}, {"measurement": "viability", "setting": "[7]; 10 µM", "value": 0.403}, {"measurement": "viability", "setting": "[8]; 0.016 µM", "value": 1.02}, {"measurement": "viability", "setting": "[8]; 0.08 µM", "value": 1.01}, {"measurement": "viability", "setting": "[8]; 0.4 µM", "value": 0.983}, {"measurement": "viability", "setting": "[8]; 2 µM", "value": 0.996}, {"measurement": "viability", "setting": "[8]; 10 µM", "value": 1.02}, {"measurement": "viability", "setting": "[9]; 0.016 µM", "value": 0.972}, {"measurement": "viability", "setting": "[9]; 0.08 µM", "value": 0.949}, {"measurement": "viability", "setting": "[9]; 0.4 µM", "value": 0.689}, {"measurement": "viability", "setting": "[9]; 2 µM", "value": 0.546}, {"measurement": "viability", "setting": "[9]; 10 µM", "value": 0.477}, {"measurement": "viability", "setting": "[10]; 0.016 µM", "value": 0.981}, {"measurement": "viability", "setting": "[10]; 0.08 µM", "value": 0.971}, {"measurement": "viability", "setting": "[10]; 0.4 µM", "value": 0.955}, {"measurement": "viability", "setting": "[10]; 2 µM", "value": 0.897}, {"measurement": "viability", "setting": "[10]; 10 µM", "value": 0.874}, {"measurement": "viability", "setting": "[11]; 0.016 µM", "value": 0.959}, {"measurement": "viability", "setting": "[11]; 0.08 µM", "value": 0.963}, {"measurement": "viability", "setting": "[11]; 0.4 µM", "value": 0.9}, {"measurement": "viability", "setting": "[11]; 2 µM", "value": 0.76}, {"measurement": "viability", "setting": "[11]; 10 µM", "value": 0.762}, {"measurement": "viability", "setting": "[12]; 0.016 µM", "value": 1.1}, {"measurement": "viability", "setting": "[12]; 0.08 µM", "value": 1.04}, {"measurement": "viability", "setting": "[12]; 0.4 µM", "value": 0.552}, {"measurement": "viability", "setting": "[12]; 2 µM", "value": 0.305}, {"measurement": "viability", "setting": "[12]; 10 µM", "value": 0.241}, {"measurement": "viability", "setting": "[13]; 0.016 µM", "value": 0.847}, {"measurement": "viability", "setting": "[13]; 0.08 µM", "value": 0.793}, {"measurement": "viability", "setting": "[13]; 0.4 µM", "value": 0.475}, {"measurement": "viability", "setting": "[13]; 2 µM", "value": 0.257}, {"measurement": "viability", "setting": "[13]; 10 µM", "value": 0.205}, {"measurement": "viability", "setting": "[14]; 0.016 µM", "value": 0.937}, {"measurement": "viability", "setting": "[14]; 0.08 µM", "value": 1.02}, {"measurement": "viability", "setting": "[14]; 0.4 µM", "value": 0.894}, {"measurement": "viability", "setting": "[14]; 2 µM", "value": 0.815}, {"measurement": "viability", "setting": "[14]; 10 µM", "value": 0.634}, {"measurement": "viability", "setting": "[15]; 0.016 µM", "value": 0.96}, {"measurement": "viability", "setting": "[15]; 0.08 µM", "value": 0.937}, {"measurement": "viability", "setting": "[15]; 0.4 µM", "value": 0.573}, {"measurement": "viability", "setting": "[15]; 2 µM", "value": 0.391}, {"measurement": "viability", "setting": "[15]; 10 µM", "value": 0.354}, {"measurement": "viability", "setting": "[16]; 0.016 µM", "value": 0.853}, {"measurement": "viability", "setting": "[16]; 0.08 µM", "value": 0.565}, {"measurement": "viability", "setting": "[16]; 0.4 µM", "value": 0.396}, {"measurement": "viability", "setting": "[16]; 2 µM", "value": 0.315}, {"measurement": "viability", "setting": "[16]; 10 µM", "value": 0.317}, {"measurement": "viability", "setting": "[17]; 0.016 µM", "value": 0.977}, {"measurement": "viability", "setting": "[17]; 0.08 µM", "value": 0.911}, {"measurement": "viability", "setting": "[17]; 0.4 µM", "value": 0.818}, {"measurement": "viability", "setting": "[17]; 2 µM", "value": 0.758}, {"measurement": "viability", "setting": "[17]; 10 µM", "value": 0.802}, {"measurement": "viability", "setting": "[18]; 0.016 µM", "value": 0.856}, {"measurement": "viability", "setting": "[18]; 0.08 µM", "value": 0.616}, {"measurement": "viability", "setting": "[18]; 0.4 µM", "value": 0.266}, {"measurement": "viability", "setting": "[18]; 2 µM", "value": 0.2}, {"measurement": "viability", "setting": "[18]; 10 µM", "value": 0.184}]}]}
